Assay results reported in patent US6054475A, “Substituted dihydrobenzofuran-based phosphodiesterase 4 inhibitors useful for treating airway disorders” (Byk Gulden Lomberg Chemische Fabrik GmbH, priority 1996, dated 2000).

Tested on: PDE4
Assay: Inhibition of PDE4 activity (method of Bauer and Schwabe, adapted to microtiter plates)
Type: biochemical
Conditions: Table A; inhibitory concentrations as -log IC50 (mol/l)
Protocol: The activity test was carried out according to the method of Bauer and Schwabe, which was adapted to microtiter plates (Naunyn-Schmiedeberg's Arch. Pharmacol. 311, 193-198, 1980). The PDE reaction takes place here in the first step. In a second step, the resulting 5'-nucleotide is cleaved to give the uncharged nucleoside by a 5'-nucleotidase of the snake venom from Crotalus atrox. In the third step, the nucleoside is separated from the remaining charged substrate on ion exchange columns. Using 2 ml of 30 mM ammonium formate (pH 6.0), the columns are eluted directly into minivials to which is additionally added 2 ml of scintillator fluid for counting.

Structure (SMILES)	-log IC50 (inhibition of PDE4 activity)
COc1ccc([C@]2(C#N)CC[C@@H](C(=O)O)CC2)c2c1OC1(CCCC1)C2 [Compound 2.1, cis-4-Cyano-4-(2,3-dihydro-7-methoxybenzofuran-2-spiro-1'-cyclopentan-4-yl)cyclohexane-1-carboxylic acid]	8.22
COc1ccc([C@]2(C#N)CC[C@@H](C(=O)O)CC2)c2c1OC1(CCOCC1)C2 [Compound 4, cis-4-Cyano-4-(2,3-dihydro-7-methoxybenzofuran-2-spiro-4'-tetrahydropyran-4-yl)cyclohexane-1-carboxylic acid]	7.69
COc1ccc([C@]2(C#N)CC[C@@H](C(N)=O)CC2)c2c1OC1(CCCC1)C2 [Compound 5, cis-4-Cyano-4-(2,3-dihydro-7-methoxybenzofuran-2-spiro-1'-cyclopentan-4-yl)cyclohexane-1-carboxamide]	8.31
COc1ccc([C@]2(C#N)CC[C@@H](C(N)=O)CC2)c2c1OC1(CCOCC1)C2 [Compound 6, cis-4-Cyano-4-(2,3-dihydro-7-methoxybenzofuran-2-spiro-4'-tetrahydropyran-4-yl)cyclohexane-1-carboxamide]	7.65
COc1ccc([C@]2(C#N)CC[C@@H](C(=O)NO)CC2)c2c1OC1(CCCC1)C2 [Compound 7, cis-4-Cyano-4-(2,3-dihydro-7-methoxybenzofuran-2-spiro-1'-cyclopentan-4-yl)cyclohexane-1-carboxylic acid hydroxylamide]	7.52
COc1ccc([C@]2(C#N)CC[C@@H](OP(=O)(O)Oc3ccccc3)CC2)c2c1OC1(CCCC1)C2 [Compound 8, cis-4-Cyano-4-(2,3-dihydro-7-methoxybenzofuran-2-spiro-1'-cyclopentan-4-yl)cyclohexyl-1-phenyl phosphate]	7.44
COc1ccc(C2(C#N)CCOCC2)c2c1OC1(CCCC1)C2 [Compound 9, 4-a-Cyano-4-e-(2,3-dihydro-7-methoxybenzofuran-2-spiro-1'-cyclopentan-4-yl)tetrahydropyran]	8.26
COc1ccc(C2(C#N)CCS(=O)(=O)CC2)c2c1OC1(CCCC1)C2 [Compound 11, 1,1-Dioxo-4-a-cyano-4-e-(2,3-dihydro-7-methoxybenzofuran-2-spiro-1'-cyclopentan-4-yl)tetrahydro-1-thiopyran]	7.72
COc1ccc(C2(OC)CCOCC2)c2c1OC1(CCCC1)C2 [Compound 13, 4-a-Methoxy-4-e-(2,3-dihydro-7-methoxybenzofuran-2-spiro-1'-cyclopentan-4-yl)tetrahydropyran]	7.41
COc1ccc(C2(C#N)CCC(=NO)CC2)c2c1OC1(CCCC1)C2 (centres unmarked) [Compound 14, 4-a-Cyano-4-e-(2,3-dihydro-7-methoxybenzofuran-2-spiro-1'-cyclopentan-4-yl)cyclohexan-1-one oxime]	7.78
COc1ccc(C2(C#N)CCNC(=O)CC2)c2c1OC1(CCCC1)C2 (centres unmarked) [Compound 16, 7-Oxo-4-cyano-4-(2,3-dihydro-7-methoxybenzofuran-2-spiro-1'-cyclopentan-4-yl)hexahydroazepine]	7.96
